Patent US6518302B1, “Remedies” (Takara Shuzo Co., Ltd., priority 1999, dated 2003)
Read-outs that look alike come from different tables or passages of the source. Each block holds one compound with its values, some of them ahead of it.

What was measured:
[1] = system: Human promyelocytic leukemia HL-60 cells; test: Antiproliferation activity against HL-60 cells (MTT method); type: cell-based; conditions: 48 hour incubation
Experimental: Human promyelocytic leukemia HL-60 cells (ATCC CCL-240) were cultured at 37° C. in RPMI 1640 medium (Gibco) containing 10% of fetal calf serum (JRH Bioscience) which had been treated at 56° C. for 30 minutes, and suspended in the same medium at a concentration of 5000 cells/90 μl. Each 90 μl portion of the suspension was distributed into each well of a 96-well plate (Falcon). To the suspension in each well was added 10 μl of one the following samples, and incubated at 37° C. in the presence of 5% CO2. The samples were 2-, 4-, 8-, 16-, 32-, 64- or 128-dilutions of filter-sterilized 200 mM aqueous solution of the compound (2) obtained in Example 1, 50 mM aqueous solution of the compound (7), 50 mM aqueous solution of the compound (9), 100 mM aqueous solution of the compound (11), 100 mM aqueous solution of the compound (14), 20 mM aqueous solution of the compound (17), 12.5 mM aqueous solution of the compound (19) or 12.5 mM aqueous solution of the compound (21) with sterile water, as well as water. After 48 hour from the initiation of the incubation, the numbers of viable cells calculated based on the absorbance measured according to the MTT method as described in “Apoptosis Jikken Protocol” (Syuzyun-sha, Seiichi Tanuma, ed., pp. 156 (1994)) were compared each other.

[2] = system: HL-60 (ATCC CCL-240) cells; test: Viability of HL-60 cells by Trypan Blue staining; type: cell-based; conditions: Homo sapiens, read-out: Viability50, concentration that results in a viability of 50%
Experimental: HL-60 (ATCC CCL-240) cells were cultured at 37° C. in RPMI 1640 medium (Bio Whittaker) containing 10% fetal calf serum (JRH) which had been treated at 56° C. for 30 minutes and suspended in RPMI 1640 medium at a concentration of 2.5×10^5 cells/4.5 ml.
[…] each of aqueous solutions of the compound (2) at a concentration of 10, 50 or 100 mM, the compound (7) at a concentration of 500, 1000 or 1500 μM, the compound (9) at a concentration of 750, 1500 or 3000 μM, the compound (11) at a concentration of 750, 1500 or 3000 μM, or the compound (14) at a concentration of 750, 1500 or 3000 μM was added to 4.5 ml of the suspension. The mixtures were incubated at 37° C. for 24 hours in the presence of 5% CO2.
A portion of the cells cultured for 24 or 48 hours as described in Example 4 was stained with 0.4% Trypan Blue and examined under an optical microscope. The number of viable cells which were not stained and the number of dead cells which were stained blue were counted. The concentration of each of the compounds (2), (7), (9), (11) and (14) that results in a viability of 50% (Viability50 mM) was determined.

[3] = system: heme oxygenase 1 protein in RAW264.7 cells; test: Heme oxygenase 1 induction (Western blot); type: cell-based; design: key: − represents no band observed; increase in the intensity of the band is represented as follows: +−<+<++; increase in the intensity of the band is represented as follows: +−<+<++; increase in the intensity of the band is represented as follows: +−<+<++; conditions: 12 hours, positive control: 5 μl of 3 mM solution in dimethyl sulfoxide added to 5 ml
Experimental: RAW264.7 cells (ATCC TIB 71) were suspended in Dulbecco's modified Eagle's medium (Bio Whittaker, 12-604F) containing 10% fetal calf serum (Gibco) at a concentration of 3×10^5 cells/ml. 5 ml of the suspension was added to each well of a 6-well microtiter plate and the plate was incubated at 37° C. overnight in the presence of 5% CO2. 50 μl of a solution containing the compound (11) or the compound (14) at a concentration of 10 mM or 5 mM in water, 5 μl of a solution containing the compound (7) at a concentration of 50 mM or 25 mM in dimethyl sulfoxide, or 5 μl of a solution containing the compound (17) at a concentration of 100 mM or 50 mM in dimethyl sulfoxide was added to the well. The plate was incubated for 12 hours. A positive control for heme oxygenase 1 induction in which 5 μl of 3 mM solution of 15-deoxy-Δ12,14 prostaglandin J2 (Cayman Chemical, 18570) in dimethyl sulfoxide was added, and a negative control in which water was added were provided. The cells were recovered by detaching the cells from the plate using a scraper and suspended in 0.1 M tris-HCl buffer (pH 7.5) containing 0.05 mM pepstatin A (Sigma, P5318), 0.2 mM leupeptin (Sigma, L2884), 1 mM phenylmethylsulfonyl fluoride (Nacalai Tesque, 273-27), 10 mM ethylenediaminetetraacetic acid disodium salt and 0.1% Triton X-100. A supernatant obtained by centrifuging the suspension after freezing and thawing was used as a protein fraction. The content of protein in the protein fraction was determined using Micro BCA Protein Assay Reagent (a product of Pierce sold by Takara Shuzo, P7411). A sample from the protein fraction prepared as described above was mixed with an equal volume of 0.125 M tris-hydrochloride buffer (pH 6.8) containing 4% sodium lauryl sulfate (SDS), 2% 2-mercaptoethanol, 0.001% Bromophenol Blue and 20% glycerol. After treatment at 100° C. for 5 minutes, a portion corresponding to 10 μg of protein was loaded on 12.5% SDS-polyacrylamide gel and electrophoresed at a constant current of 20 mA. After electrophoresis, the gel was transferred to a PVDF membrane (Millipore, IPVH000 10) at a constant voltage of 15 V for 25 minutes using a blotting buffer (containing 48 mM tris, 39 mM glycine, 20% methanol and 0.0375% SDS) and Trans-Blot SD Cell Semi-Dry blotting apparatus (Bio-Rad) according to the attached protocol. After transferring, the PVDF membrane was blocked in a solution of Block Ace (Dainippon Pharmaceutical, UK-B25) at 4 C overnight. After blocking, the membrane washed three times in phosphate buffered saline containing 0.1% Tween 20 for 15 minutes with gentle shaking. The membrane was reacted in phosphate buffered saline containing 10% Block Ace, 0.1% Tween 20 and 200 ng/ml of anti-heme oxygenase 1 antibody (N-19; Santa Cruz, sc-7696) at room temperature for 1 hour with gentle shaking, and then washed three times in phosphate buffered saline containing 0.1% Tween 20 for 15 minutes with gentle shaking. The membrane was reacted in phosphate buffered saline containing 10% Block Ace, 0.1% Tween 20 and 0.1% peroxidase-labeled rabbit anti-goat IgG (H+L) antibody (Zymed, 61-1620) at room temperature for 1 hour with gentle shaking, and then washed five times in phosphate buffered saline containing 0.1% Tween 20 for 15 minutes with gentle shaking. The PVDF membrane was stained using Western Blot Chemiluminescence Reagent Plus (a product of NEN Life Science Products sold by Daiichi Pure Chemicals, NEL103) according to the attached protocol and exposed to an X-ray film (Kodak, CAT165 1454). After exposure, the film was developed using FPM800 (Fuji Film).
The intensity of the band depended on the concentration of the sample. In the table, the intensity of the band for heme oxygenase 1 protein is expressed by the mark +. Specifically, − represents no band observed, and increase in the intensity of the band is represented as follows: +−<+<++.

[4] = system: HL-60 cells (ATCC CCL-240); test: Proliferation of HL-60 cells with or without hydroxyurea G1 arrest (WST-1); type: cell-based, Human; conditions: 48 hours
Experimental: HL-60 cells (ATCC CCL-240) were suspended in RPMI 1640 medium (Bio Whittaker, 12-702F) containing 10% fetal calf serum (Gibco) and 100 μM hydroxyurea at a concentration of 5×10^5 cells/ml. 20 ml of the suspension was added to a 10-cm Petri dish. The dish was incubated at 37° C. overnight in the presence of 5% CO2 to make the cells arrest at G1 phase. The cells were collected by centrifugation and resuspended in RPMI 1640 medium containing 10% fetal calf serum (Gibco) and 100 μM hydroxyurea at a concentration of 5×10^5 cells/ml. 5 ml of the suspension was added to each well of a 6-well microtiter plate. On the other hand, as cells without the treatment with hydroxyurea, HL-60 cells were suspended in RPMI 1640 medium containing 10% fetal calf serum (Gibco) at a concentration of 1×10^5 cells/ml. 5 ml of the suspension was added to each well of a 6-well microtiter plate. 50 μl of a solution containing DGE at a concentration of 30, 22.5, 15 or 7.5 mM in water, 25 μl of a solution containing the compound (7) at a concentration of 60, 45, 30 or 15 mM in dimethyl sulfoxide, or 25 μl of a solution containing the compound (17) at a concentration of 100, 75, 50 or 25 mM in dimethyl sulfoxide was added to the well containing the cells treated with hydroxyurea. 50 μl of a solution containing DGE at a concentration of 8, 6, 4 or 2 mM in water, 25 μl of a solution containing the compound (7) at a concentration of 30, 22.5, 15 or 7.5 mM in dimethyl sulfoxide, or 25 μl of a solution containing the compound (17) at a concentration of 80, 60, 40 or 20 mM in dimethyl sulfoxide was added to the well containing the cells without the treatment with hydroxyurea. The plate was incubated for additional 48 hours. Cells collected by centrifuging the culture were suspended in 5 ml of fresh RPMI 1640 medium containing 10% fetal calf serum (Gibco). 100 μl of the suspension was used for measuring viable cell number using Premix WST-1 Cell Proliferation Assay System (Takara Shuzo, MK400).
For each of the samples, the concentration at which 50% of the proliferation is inhibited (IC50) for the cells treated with hydroxyurea was higher than that for the cells without the treatment with hydroxyurea. Table 3 summarizes IC50 (μM) for each of the samples. […] Since most of cells in a living body are arrested at G1 phase, it is considered that DGE and R-AhGal compounds (precursors of DGE) are agents less toxic to a living body.

IC50 ([1]; Homo sapiens, HL-60 cells, read-out: IC50, concentration at which 50% of the proliferation is inhibited): 113 µM
IC50 ([2]; 24 hours): 17200 µM
IC50 ([2]; 48 hours): 189 µM
SMILES: CC(=O)OCC1OC(OC2C(O)COC2C(O)C(O)O)C(OC(C)=O)C(OC(C)=O)C1OC(C)=O [Compound (9), 4-O-(β-D-2,3,4,6-tetra-O-acetylgalactopyranosyl)-3,6-anhydro-D-galactose]
antiproliferation activity against HL-60 cells [1]: exhibited antiproliferation activities

SMILES: CCCCC/C=C/C=C1/C(=O)C=C[C@@H]1C/C=C\CCCC(=O)O [15-deoxy-Δ12,14 prostaglandin J2, reference compound]
Intensity of band for heme oxygenase 1 protein [3]: +

IC50 ([4]; HL-60 cells arrested at G1 phase with 100 μM hydroxyurea, read-out: IC50, Cells treated with hydroxyurea): 101 µM
IC50 ([4]; HL-60 cells, read-out: IC50, Cells without treatment with hydroxyurea): 49.5 µM
SMILES: O=C1C=CC(CO)OC1O [DGE, L-glycero-1,5-epoxy-1αβ,6-dihydroxy-cis-hex-3-en-2-one, reference compound]
